Key:
EPO receptor [1] = test: EPO receptor phosphorylation in erythroleukemia cell line TF-1 (phospho-EPOR ELISA); format: cell-based, human; details: TF-1, 10 min, FIG. 5B
Experimental: (§1) Primary micro-dissected fetal brain tissue was obtained from a commercial source (Advanced Bioscience Resources, Inc., Alameda, Calif.). Cultured primary human fetal neural cells (3 h, 1 day, 17 days, or 26 days in culture) were incubated with Compound 5, Compound 6, or controls for 10 min (FIG. 5A). Phospho-EPOR was detected by ELISA (R&D Systems). […] Human erythropoietic cell line TF-1 was cultured for 10 min in the presence of Compound 5, Compound 6, or the controls, and phospho-EPOR was detected by ELISA (R&D Systems). The data represent mean±SEM of triplicate cultures. […] The receptor activation results were consistent with functional cell based assays using primary human CD34+ bone marrow progenitor cells and erythroleukemia cell line TF-1.

frataxin [2] = details: 8 FRDA patients, open label pilot trial (Boesch et al. 2008); cited from earlier work
[3] = system: rat ventral mesencephalic dopaminergic neurons; test: Protection of primary dopaminergic neurons from 6-OHDA (THir neuron staining); format: cell-based; details: 6.25 uM 6-OHDA 40 min, FIG. 7
Experimental: Dissociated embryonic D14 rat ventral mesencephalic cells were used.
Dopaminergic neurons play a key role in the pathogenesis of Parkinson's disease and compounds enhancing survival of these cells have significant therapeutic potential. Dissociated embryonic D14 rat ventral mesencephalic cells were used to test the potential of EPO mimetic compounds to protect primary dopaminergic neurons. […] The cells were plated in 48-well poly-D-lysine coated plates using a microisland technique. The microislands were seeded into dry plates in 10 uL aliquots of 3000 cells/uL and incubated at 37° C. for 1 h to allow for adhesion. […] On day 3, the medium was replaced with 6.25 uM 6-hydroxydopamine (6-OHDA, Sigma) for a 40 minute incubation. The toxin was then removed and the cells were cultured for an additional 2 days. On day 5, the cells were fixed, permeabilized and stained for tyrosine hydroxylase-immunoreactive (THir) neurons.

rats [4] = details: rat model of MCA occlusion (Brines et al. 2000); cited from earlier work
frataxin [5] = details: patients with chronic kidney disease, rhEPO infusion for anemia (Sturm et al. 2005); cited from earlier work
[6] = human, intravenous administration (Xenocostas et al. 2005); cited from earlier work
[7] = system: human CD34+ hematopoietic stem cells; test: Proliferation and differentiation of primary human CD34+ cells; format: cell-based
Experimental: Compound 10 was tested at different concentrations for its ability to induce proliferation and differentiation of human CD34+ hematopoietic stem cells. Human CD34+ cells were purified by (FIG. 6A) immunomagnetic beads (>90% purity, purchased from Stem Cell Technologies) or (FIG. 6B) cell sorting (at Blood Systems Research Institute) and the cells were cultured in the presence of compounds for eight (FIG. 6A) or eleven (FIG. 6B) days. (FIG. 6A) The level of cell growth and survival was measured based on ATP levels (CellTiterGlo reagent), or (FIG. 6B) the expression level of CD235a was analyzed by flow cytometry as a marker for cell maturation. Cell survival was analyzed using the CellTiterGlo reagent to measure ATP levels as a marker of metabolically active cells that have not undergone apoptosis, and expression of CD235a as a marker of erythroid cell differentiation and as a specific marker for EPO-like erythropoietic activity.

PC12 cells = test: PC12 cell survival under serum deprivation (CellTiter-Glo); format: cell-based, rat; details: 72 h serum-free; for minimal effective concentration: Rattus norvegicus, PC-12, read-out: PC12 cell proliferation (CellTiter-Glo ®) Concentration at which RLU increased >25% compared to medium control
Experimental: Each culture condition was performed in quadruplicate in each experiment and the mean values were calculated. The results represent mean±SEM of relative light unit values when compared to the mean values obtained in the presence of the medium alone. A total of 13 experiments were performed and the statistical significance was analyzed using GraphPad Prism software using ANOVA, followed by paired t-test. The symbol * indicates P-values <0.01.
PC12 cells were cultured in DMEM supplemented with 10% fetal calf serum and 5% horse serum. […] Cell viability was analyzed by CellTiter-Glo® reagent (Promega).
PC12 cells were cultured in DMEM supplemented with 10% fetal calf serum and 5% horse serum. […] Cell survival of the serum-starved cells was analyzed by CellTiter-Glo® reagent luminescence reading.
FIG. 2 illustrates neuroprotective effects of Compounds 1-5 when tested in PC12 cell protection assays. PC12 cells were subjected to serum deprivation as described under FIG. 1.
PC12 cells were cultured in DMEM supplemented with 10% fetal calf serum and 5% horse serum. […] Cell survival of the serum-starved cells was analyzed by CellTiter-Glo® reagent luminescence reading (relative light units, “RLU”). […] “NS” indicates RLU increased <25% when compounds were tested at 5 uM.

frataxin [8] = test: Frataxin protein levels in primary human fetal neurons (ELISA); format: cell-based; details: 28 days in culture, 24 h incubation, FIG. 4B
Experimental: The effects of the compounds on frataxin protein levels in cells were analyzed. […] Embryonic mouse cell line P19 was differentiated into neuronal cells in the presence of retinoic acid and frataxin levels were measured (FIG. 4A). Frataxin levels were measured after 24 h by multi-species frataxin-ELISA (MitoSciences) and compared to total protein levels. The data represent mean±SEM. Primary human fetal neurons (28 days in culture) were also incubated for 24 h in the presence of the compounds, and human frataxin levels were measured by ELISA (MitoSciences) and compared to total protein levels (FIG. 4B). The data represent mean±SEM of triplicate measurements. Compounds were also tested for their effects on frataxin levels in cells derived from patients with FRDA. Cultures of patient peripheral blood mononuclear cells (PBMCs) were also used to test the EPO mimetic compounds for frataxin enhancement in frataxin-deficient cells. Compound 1 and Compounds 5-6 enhanced frataxin levels in these patient cells at concentration 1 uM or lower.

primary human neurons = test: Neuroprotection of primary human neurons against staurosporine; format: cell-based; details: 47 days in culture, compound 24 h, then staurosporine 500 nM 24 h, FIG. 3B
Experimental: A) Primary rat cortical neurons were isolated from micro-surgically dissected regions of day 18 embryonic rat brain (Brain Bits, LLC, Springfield, Ill.) and cultured for 12 days in vitro. Then, Compounds 5-7 were added for 24 h. Next, NMDA (50 uM) was added and the cells were cultured for an additional 24 hours. Cells cultured without the insult were considered to represent 0% neuron death. The data represent mean±SEM of six replicate cultures and * indicates P value ≦0.05. B) Primary micro-dissected fetal brain tissue was obtained from a commercial source (Advanced Bioscience Resources, Inc., Alameda, Calif.). […] Staurosporine (500 nM) was added and the cells were cultured for an additional 24 hours. Cells cultured without the insult were considered to represent 0% neuron death. The data represent mean±SEM of six replicate cultures and * indicates P value ≦0.05.

TF-1 cells = test: Proliferation of TF-1 cells; format: cell-based, human; details: at concentrations that provided significant neuroprotective effects
EPO receptor [9] = biological target: T1, EPO receptor (Homo sapiens, UniProt P19235); test: EPO receptor phosphorylation in primary human fetal neural cells (phospho-EPOR ELISA); format: cell-based; details: FIG. 5A; for EPO receptor phosphorylation: 10 min incubation; for level of receptor activation compared with recombinant human EPO: recombinant human EPO 10 IU/ml
T1 construct: endogenous in cells; host or cells: primary human fetal neural cells cultured from micro-dissected fetal brain tissue (Advanced Bioscience Resources, Inc.)
T1 sequence (P19235 25-508): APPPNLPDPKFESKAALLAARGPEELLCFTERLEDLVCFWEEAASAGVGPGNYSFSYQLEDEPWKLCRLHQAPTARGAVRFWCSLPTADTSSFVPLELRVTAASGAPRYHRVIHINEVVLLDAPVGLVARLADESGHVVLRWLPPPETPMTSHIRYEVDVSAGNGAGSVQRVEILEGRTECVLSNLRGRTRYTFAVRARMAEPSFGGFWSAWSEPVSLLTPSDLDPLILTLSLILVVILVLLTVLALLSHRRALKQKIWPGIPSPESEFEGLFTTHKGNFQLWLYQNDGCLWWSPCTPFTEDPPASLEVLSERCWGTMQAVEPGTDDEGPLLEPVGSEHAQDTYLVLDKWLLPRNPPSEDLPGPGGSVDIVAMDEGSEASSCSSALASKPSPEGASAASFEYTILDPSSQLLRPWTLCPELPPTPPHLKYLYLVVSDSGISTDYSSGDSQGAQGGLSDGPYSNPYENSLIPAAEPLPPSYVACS
Experimental: as §1

rats [10] = test: Kidney and CNS protection against DMA + Cremophor EL toxicity in rats; format: in vivo, rat; details: DMA + CrEL 2.5 mL/kg each IP
Experimental: High-dose N,N-dimethylacetamide (DMA)+Cremophor EL (CrEL) (2.5 mL/kg each, IP) was used to induce acute CNS and organ toxicity, and the potential of Compound 5 to protect the rats was studied.

[11] = NS = RLU increased <25% at 5 uM

Row | Compound | EPO receptor activation (phospho-EPOR) (EPO receptor [1]) | minimal effective concentration (PC12 cells; [11]) | frataxin protein levels (frataxin [8]) | neuroprotective effect (neuron death) (primary human neurons) | proliferation of TF-1 cells (TF-1 cells) | EPO receptor phosphorylation (EPO receptor [9]) | level of receptor activation compared with recombinant human EPO (EPO receptor [9]) | further results
1 | rhEPO: recombinant human (rh)EPO, erythropoietin; positive control | effective | – | – | – | – | – | – | increase in frataxin in lymphocytes (frataxin [2]): 24%; protection of dopaminergic neurons from 6-OHDA toxicity ([3]; 10 IU/ml): significantly protected; reduction of infarct volume (rats [4]): 50-75%; increase in frataxin levels in peripheral blood mononuclear cells (frataxin [5]): 2-3 fold; concentration in cerebrospinal fluid lower than in circulation [6]: more than 1000 fold
2 | COc1ccc(NC(=O)CSc2nc3nc(C)cc(C)n3n2)cc1 [Example 10, 2-({5,7-dimethyl-[1,2,4]triazolo[1,5-a]pyrimidin-2-yl}sulfanyl)-N-(4-methoxyphenyl)acetamide] | – | – | – | – | – | – | – | CD34+ progenitor cell proliferation (ATP levels, CellTiterGlo) ([7]; eight days culture, FIG. 6A): dose-dependent induction of CD34+ progenitor cell proliferation; differentiation into erythroid cells (CD235a expression, flow cytometry) ([7]; eleven days culture, FIG. 6B): differentiation into erythroid cells expressing CD235a; PC12 cell proliferation (CellTiter-Glo ®) Concentration at which RLU increased >25% compared to medium control (PC12 cells; [11]): NS (RLU increased <25% when compounds were tested at 5 uM)
3 | Cc1cc(C)n2nc(SCCOc3ccc(Cl)cc3)nc2n1 [Example 1, 2-{[2-(4-chlorophenoxy)ethyl]sulfanyl}-5,7-dimethyl-[1,2,4]triazolo[1,5-a]pyrimidine] | – | < 5 µM | – | – | – | – | – | protection of dopaminergic neurons from 6-OHDA toxicity ([3]; 1 uM): significantly protected; protection of PC12 cells (cell viability) (PC12 cells; 1 uM, FIG. 1, at least comparable to rhEPO): significant effect; level of protection of PC12 cells compared with rhEPO (PC12 cells; 5 uM vs rhEPO 10 U/ml, FIG. 1): higher level of protection than rhEPO
4 | Cc1cc(C)n2nc(OCCN(CCO)c3ccccc3)nc2n1 [Example 13, 2-{[2-({5,7-Dimethyl-[1,2,4]triazolo[1,5-a]pyrimidin-2-yl}oxy)ethyl](phenyl)amino}ethan-1-ol] | did not activate EPO receptor | < 5 µM | increased frataxin protein levels | Significant protective effects | did not induce proliferation | increased EPO receptor phosphorylation in a dose-dependent manner | comparable to that induced by recombinant human EPO | –
5 | Cc1cc(C)n2nc(OCCOc3ccc(Cl)cc3)nc2n1 [Example 11, 2-[2-(4-chlorophenoxy)ethoxy]-5,7-dimethyl-[1,2,4]triazolo[1,5-a]pyrimidine] | did not activate EPO receptor | < 5 µM | increased frataxin protein levels | Significant protective effects | did not induce proliferation | increased EPO receptor phosphorylation in a dose-dependent manner | comparable to that induced by recombinant human EPO | CNS toxicity of DMA/CrEL (rats [10]): prevented the CNS toxicity; response of the rats to formalin injection (rats [10]): normalized the response; kidney-protective effects measured by hypoproteinemia in serum (rats [10]; FIG. 8): Kidney-protective effects
